This is an account of results in patent US20260364124A1, “ANTI-C. DIFFICILE SMALL MOLECULE METABOLITES FROM DIET AND GUT MICROBIOME” (The Children's Medical Center Corporation, priority 2023, published 2026).

Structures are written as SMILES. “Also recorded” adds a separate entry of the source.

The test system of one experiment is B. uniformis. Put plainly: In vitro aglycone liberation by wildtype B. uniformis (LC-MS). The settings on record: role: substrate; B. uniformis cultivated with polydatin (FIG. 2). Also noted: species or system Bacteroides uniformis ATCC 8492. The text has this: Comparative LC-MS EICs (Extracted Ion Chromatogram) of methanol-water extracts of bacterial cultures supplemented with each polyphenolic glycoside after eight hours are provided. The trace labeled “A” corresponds to the EIC of each glycoside, and the trace labeled “B” corresponds to the EIC of each aglycone. The portion of the trace “B” peak overlapping the trace “A” peak corresponds to the aglycone detected from fragmentation of the glycoside at the ionization source and is a technical artifact.
FIGS. 5A and 5B show microbiome-mediated polyphenol aglycone liberation. […] Step 2: Spent media was filter-sterilized. Step 3: C. difficile was grown in spent media from either vehicle or polydatin (top).
In vitro aglycone liberation: All B. uniformis strains were grown on brain-heart-infusion supplemented with hemin (50 mg/L) and vitamin K1 (0.25 mg/L) (BHIS) agar plates or in basal media (BSG; proteose peptone (20 g/L), yeast (5 g/L), NaCl (5 g/L), glucose (5 g/L), potassium phosphate dibasic (5 g/L), cysteine (0.5 g/L), hemin (50 mg/L), and vitamin K1 (0.25 mg/L). All isolates were recovered on and grown in pre-reduced media in a Coy anaerobic chamber (Coy Labs).
To assess the capacity of Bacteroides to liberate aglycones from their parent polyphenolic glycosides, B. uniformis ATCC 8492 WT and AgshD were recovered on a BHIS agar plate and incubated anaerobically at 37 °C for 48 h. A starter culture (1 mL) of BSG was inoculated with each isolate and grown for 15 h. This starter culture was then used to inoculate a BSG sub-culture (1 mL) at a final dilution of 1:10. […]
For polyphenolic glycoside and aglycone-containing samples, samples were dried under nitrogen flow and resuspended in 50 μl of methanol 50% in water. […] Samples were quantified on a QEplus mass spectrometer coupled to an Ultimate 3000 LC (Thermo fisher). […] Quantification was performed using Tracefinder (Thermo fisher), using the ratio of the area under the peak for each compound and of the internal standard, using the accurate mass of the [M−H]^− ions.

A further experiment concerns C. difficile isolates. Put plainly: Phytochemical microbial killing assay, diverse C. difficile isolates. It is filed as cell-based, Clostridioides difficile. As for the experimental part:
FIG. 3B provides a heatmap of growth of 20 Clostridioides difficile isolates in the absence of presence of the polyphenolic glycoside polydatin or the Bacteroides liberated aglycone resveratrol. […] Growth induction or inhibition is measured as the ratio of growth in media (AUC) supplemented with glucose and 150 μM polydatin or resveratrol versus growth in media (AUC) supplemented with glucose and vehicle. Value>1 is representative of enhanced growth in compound and value <1 is representative of inhibition of growth in compound.
Bacterial isolates were grown in vitro in media plus compound. Killing was measured by bacterial culture optical density (proxy for amount of bacteria in a culture).
Phytochemical microbial killing assays: All gut pathogen isolates were grown on brain-heart-infusion supplemented with hemin (50 mg/L) and vitamin K1 (0.25 mg/L) (BHIS) agar plates or in basal media (BSG; proteose peptone (20 g/L), yeast (5 g/L), NaCl (5 g/L), glucose (5 g/L), potassium phosphate dibasic (5 g/L), cysteine (0.5 g/L), hemin (50 mg/L), and vitamin K1 (0.25 mg/L). Isolates were recovered on and grown in pre-reduced media in a Coy anaerobic chamber (Coy Labs). To determine the fitness effects of phloridzin hydrate (TCI), phloretin (TCI), polydatin (TCI), and resveratrol (TCI) on enteric pathogen fitness, each pathogen isolate was recovered on a BHIS agar plate and incubated anaerobically at 37 °C for 48 h. A starter culture (1 mL) of BSG was inoculated with C. difficile and grown for 15 h. This starter culture was then used to inoculate a BSG sub-culture (1 mL) at a final dilution of 1:10. This sub-culture was grown for 3 h to an OD600~0.5 before being used to inoculate experimental cultures at a final dilution of 1:50. The experimental media consisted of a modified YCFA media (mYCFA; casitone (2.5 g/L), yeast extract (0.625 g/L), cysteine (0.5 g/L), magnesium sulfate heptahydrate (f.c. 365 μM), calcium chloride dihydrate (f.c. 610 μM), sodium bicarbonate (4 g/L), dipotassium phosphate (0.45 g/L), monopotassium phosphate (0.45 g/L), sodium chloride (0.9 g/L), sodium acetate (2.71 g/L), Hemin (50 mg/L), Vitamin K1 (0.25 mg/L), ferrous sulfate (4 μg/mL), ATCC vitamin mix (1% v/v)) supplemented with glucose (15 mM, Sigma) plus each compound (150 μM) or glucose (15 mM, Sigma) plus DMSO (0.15%, Sigma). Bacterial growth was monitored by measuring the optical density at 600 nm (OD600) of each culture in a 384 well plate with an Epoch2 spectrophotometer (BioTek Instruments) and MicroPlate stacker (Agilent BioTek) for 24 hours.

In the case of `OC[C@H]1O[C@@H](Oc2cc(O)cc(/C=C/c3ccc(O)cc3)c2)[C@H](O)[C@@H](O)[C@@H]1O` [polydatin], the “liberation of resveratrol from polydatin” value with B. uniformis is “liberated resveratrol”. The “growth inhibition of Clostridioides difficile” value in the experiment on C. difficile isolates (150 μM, 20 C. difficile isolates, growth ratio (AUC) vs vehicle (FIG. 3B)) was “did not; also recorded: but not its parent glycoside polydatin”. Further, the “killing / growth inhibition of diverse C. difficile isolates” value with C. difficile isolates (in vitro, media plus compound, culture optical density (FIG. 4)) was “did not”.
